Assay results as given in patent US20260083674A1, “OXAZOLIDINONE LIPOSOME COMPOSITIONS” (priority 2021, published 2026).

Tests used:
[1] = male, Sprague-Dawley, rat, in vivo, po, 50 mg/kg
Procedure: For plasma drug measurements, 0.5 ml blood was collected in lithium heparin tubes at 5 min, 15 min, 1 h, 3 h, 6 h, 24 h, 48 h, and 72 h. The samples were centrifuged and the resultant plasma was separated and transferred to duplicate clear polypropylene tubes, frozen immediately over dry ice, and stored at −80° C. until analysis. The plasma concentration in rats was determined by HPLC. Non-compartment PK analyses were performed using Phoenix WinNonlin (Version 7.0).

M. tuberculosis Erdman = conditions: eight weeks, Balb/c and C3HeB/FeJ mice; cited from earlier work

SMILES: CC(=O)NC[C@H]1CN(c2ccc(N3CCOCC3)c(F)c2)C(=O)O1 [Linezolid]
- AUC0-last/Dose [1]: 5.64 [hr*μg/mL]/[mg/kg]
- log 10 CFU counts, linezolid monotherapy (Lanoix et al.) (M. tuberculosis Erdman): 4-6 log 10 CFU
